This is an account of results in patent US12329823B2 (The Scripps Research Institute, priority 2021, dated 2025).

The target in assay [1] is T1, dog GIPR (Canis lupus familiaris, UniProt A0A8I3MPG1).
T1 sequence (A0A8I3MPG1 24-449): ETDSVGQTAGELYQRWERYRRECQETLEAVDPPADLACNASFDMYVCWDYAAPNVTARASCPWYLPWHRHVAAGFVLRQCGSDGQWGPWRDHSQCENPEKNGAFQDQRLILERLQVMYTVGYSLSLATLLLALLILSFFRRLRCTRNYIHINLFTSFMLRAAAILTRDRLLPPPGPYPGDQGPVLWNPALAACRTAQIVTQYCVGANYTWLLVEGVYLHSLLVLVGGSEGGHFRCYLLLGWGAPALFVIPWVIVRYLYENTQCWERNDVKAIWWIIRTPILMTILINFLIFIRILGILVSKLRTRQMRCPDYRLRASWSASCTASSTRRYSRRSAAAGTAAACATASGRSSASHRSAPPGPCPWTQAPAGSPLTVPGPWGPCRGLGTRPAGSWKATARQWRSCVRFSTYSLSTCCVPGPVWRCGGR
Briefly: In vitro potency, dog GIPR activation (receptor-mediated cAMP synthesis). It counts as cell-based. On the procedure: GLP-1R-CRE or HEK293-GIPR-CRE cells were seeded in 384-well plates at a density of 5000 cells per well and cultured for 18 h in DMEM with 10% FBS at 37° C. and 5% CO2. Cells were treated with peptides in a dose dependent manner for 24 h, and receptor activation was reported by luminescence intensities, using One-Glo (Promega, WI) luciferase reagent following manufacturer's instruction. The EC50 of each peptide was determined using GraphPad Prism 6 software (GraphPad, San Diego, CA). Results are depicted in FIGS. 6A-6B, FIGS. 7A-7B, FIGS. 8A-8B, FIGS. 9A-9B, and Tables 7-12. Measurements of peptide conjugate potency were expressed as half maximal effective concentration (EC50) values.

In assay [2] the target is cynomolgous monkey GIPR. Briefly: In vitro potency, cynomolgous monkey GIPR activation (receptor-mediated cAMP synthesis). It counts as cell-based. The conditions noted are these: Table 12; read-out: In Vitro Potency GIPR EC50, Cyno.
For assay [3], the target named is T2, human GIPR (Homo sapiens, UniProt P48546).
T2 construct: expressed in transfected cells; host or cells: HEK293 (CRE-HEK293, HEK293-GIPR-CRE)
T2 sequence (P48546 22-466): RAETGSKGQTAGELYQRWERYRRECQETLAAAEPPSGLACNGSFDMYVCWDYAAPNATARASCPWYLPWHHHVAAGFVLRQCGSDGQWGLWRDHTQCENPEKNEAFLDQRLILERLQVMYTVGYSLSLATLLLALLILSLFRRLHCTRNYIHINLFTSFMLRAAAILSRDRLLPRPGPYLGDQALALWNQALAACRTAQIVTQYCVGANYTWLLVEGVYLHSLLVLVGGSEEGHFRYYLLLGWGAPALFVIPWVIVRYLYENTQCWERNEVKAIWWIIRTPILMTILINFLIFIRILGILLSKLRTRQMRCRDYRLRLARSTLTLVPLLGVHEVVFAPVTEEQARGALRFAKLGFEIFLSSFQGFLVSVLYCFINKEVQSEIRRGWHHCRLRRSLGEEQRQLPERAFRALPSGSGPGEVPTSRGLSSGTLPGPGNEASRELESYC
To be noted: literature, in words; cited from earlier work.

Assay [4] is described as follows: In vivo oral glucose tolerance test (OGTT) 12 h after a single S.C. dose. Also noted: species or system mouse. The conditions noted are these: 10 nmol/kg S.C.; 12 h before glucose. On the procedure: Mice were fasted overnight prior to the oral glucose tolerance test (OGTT), and then dosed with peptide. After 12 h, 1 g of glucose solution per kg body weight was administered orally, and mouse tail blood glucose levels were measured before (0 min) and after glucose challenge for 90 minutes (with measurements at 15, 30, 60 and 90 minutes) (FIG. 16). The data were compared using the unpaired Student's t test. Where appropriate, data were compared using repeated measures or one-way analysis of variance, followed by the Student-Newman-Keuls post hoc test. Calculations for […] (mg/dL*min) were also analyzed and graphed in FIG. 16. […]. […].

The target of assay [5] is human GLP-1R (Homo sapiens, UniProt P43220). To be noted: literature, in words; cited from earlier work.
human GLP-1R, sequence (P43220 24-463): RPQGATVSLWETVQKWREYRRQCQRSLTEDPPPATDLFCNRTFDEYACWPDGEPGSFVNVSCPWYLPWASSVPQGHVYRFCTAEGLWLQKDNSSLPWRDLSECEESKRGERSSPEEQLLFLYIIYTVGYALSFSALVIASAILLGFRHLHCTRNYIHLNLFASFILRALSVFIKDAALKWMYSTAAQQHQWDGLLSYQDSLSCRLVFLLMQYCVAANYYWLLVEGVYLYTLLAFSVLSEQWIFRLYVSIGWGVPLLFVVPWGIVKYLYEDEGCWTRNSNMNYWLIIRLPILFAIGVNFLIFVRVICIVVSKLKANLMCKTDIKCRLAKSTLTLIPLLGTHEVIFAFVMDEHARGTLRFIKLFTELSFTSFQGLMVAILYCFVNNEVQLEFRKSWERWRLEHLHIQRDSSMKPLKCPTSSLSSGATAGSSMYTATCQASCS

Broadly, the EC50 is the midpoint of the concentration-response curve.

For `CC[C@H](C)[C@H](NC(=O)[C@H](CO)NC(=O)[C@H](Cc1ccc(O)cc1)NC(=O)[C@H](CC(=O)O)NC(=O)[C@H](CO)NC(=O)[C@@H](NC(=O)[C@H](Cc1ccccc1)NC(=O)[C@@H](NC(=O)CNC(=O)[C@H](CCC(=O)O)NC(=O)[C@H](C)NC(=O)[C@@H](N)Cc1ccc(O)cc1)[C@@H](C)O)[C@@H](C)CC)C(=O)N[C@@H](C)C(=O)N[C@@H](CCSC)C(=O)N[C@@H](CC(=O)O)C(=O)N[C@@H](CCCCN)C(=O)N[C@H](C(=O)N[C@@H](Cc1c[nH]cn1)C(=O)N[C@@H](CCC(N)=O)C(=O)N[C@@H](CCC(N)=O)C(=O)N[C@@H](CC(=O)O)C(=O)N[C@@H](Cc1ccccc1)C(=O)N[C@H](C(=O)N[C@@H](CC(N)=O)C(=O)N[C@@H](Cc1c[nH]c2ccccc12)C(=O)N[C@@H](CC(C)C)C(=O)N[C@@H](CC(C)C)C(=O)N[C@@H](C)C(=O)N[C@@H](CCC(N)=O)C(=O)N[C@@H](CCCCN)C(=O)NCC(=O)N[C@@H](CCCCN)C(=O)N[C@@H](CCCCN)C(=O)N[C@@H](CC(N)=O)C(=O)N[C@@H](CC(=O)O)C(=O)N[C@@H](Cc1c[nH]c2ccccc12)C(=O)N[C@@H](CCCCN)C(=O)N[C@@H](Cc1c[nH]cn1)C(=O)N[C@@H](CC(N)=O)C(=O)N[C@H](C(=O)N[C@H](C(=O)N[C@@H](CCC(N)=O)C(=O)O)[C@@H](C)O)[C@@H](C)CC)C(C)C)[C@@H](C)CC` [hGIP, reference compound], the half-maximal effective concentration (EC50) in assay [1] was determined as 0.7 nM; in assay [2] it was 0.69 nM.
Consider Tirzepatide, for which the “binding affinity to human GIPR versus hGIP” value in assay [3] is “comparable affinity than that of hGIP”. Moreover, the EC50 in assay [2] was found to be 0.08 nM. In addition, in assay [4], the “effects on glucose tolerance” value is recorded as “indistinguishable effects on glucose tolerance”. Moreover, the “GLP-1 receptor binding versus native hGLP-1” value in assay [5] was “approximately five times lower GLP-1 receptor binding than native hGLP-1”.
